Assays:
[1] = cited from earlier work
[2] = test system: Apis mellifera Carniolan foraging worker honeybees; test: Choice test in a free-flight box apparatus; type: in vivo; settings: for P (probability that a honeybee will return to a test dish, nP divided by n): control likelihood without compound 47.5%; for nP (number of tests a honeybee returned to a preferred test dish): free-flight box, 2 μL of 0.05-0.5% compound on filter papers under honey dish
Excerpt: To determine whether living honeybees will choice to move towards a source of a candidate compound, these compounds will be assayed using a choice test in a free-flight box apparatus.
All tests will be done in a free-flight box apparatus. The apparatus comprises a 244 cm long×46 cm deep×30 cm high clear plastic box including two equally-sized independent testing chambers, each with 10 cm diameter air inlets that admit filtered room air, separated by a smaller central chamber with a screened air outlet to each testing chamber. Air can be pulled through the sealed box via a 10 cm diameter duct from the air outlet using an AQE Fume Fighter 500 fume extractor (BPA Air Quality Solutions, LLC, Charleston, S.C.), which removes the test odors using activated charcoal and HEPA filters. The box is housed in an environmentally controlled room with overhead illumination timed to correspond to the current ambient light cycle including 2 additional sets of lights timed to approximate crepuscular lighting conditions. The bottom of the apparatus will be lined with clean absorbent paper marked with a 4×9 grid pattern, forming 12 cm×12 cm squares with marked coordinates.
Apis mellifera Carniolan foraging worker honeybees will be obtained from a local apiary (typically 60 bees per shipment). Thirty honeybees will be put into each testing chamber and will be allowed to acclimate for 24 hours with food and water freely available. At the beginning of each test day all food will be removed from the test chamber, but water will be continually available throughout all tests. For each test, approximately 0.3 g of organic, raw orange blossom honey will be added to each clean small plastic weigh boat (Cole-Palmer). The honey boats will be placed in small plastic culture dishes, which will be distributed in the marked squares in the chambers. The positions of the dishes on the grid for a set of trials will be chosen to avoid the bees' preferred resting area so that they will have to find the food actively, but the same dish positions will be maintained for a given set of trials. We will use seven dishes of honey: six to which the bees will have access and a seventh that will have a screened lid. The honey in each boat will be weighed on an analytical balance before and after the test, with the screened sample as a control for evaporative loss. The fume extractor will be left off during the experimental trails, and will be turned on to clear the air after the test dishes are covered and removed from the chamber at the end of each trial.
Based on the observation that bees tend to return to dishes in the same position where they have fed before, each set of trials with each group of bees began with “Pattern Identification” tests to see which dishes lose the most weight, reflecting the most feeding. Once bees are consuming an acceptable amount in 10-15 min, typically in 1-2 trials, a set of test compound trials will begin. The test compound will be pipetted onto pieces of filter paper placed on the dish bottom below the boat containing a fresh, weighed honey sample so that the test compound will be inaccessible to the bees. We used 2 μL of a candidate compound at a concentration of 0.05-0.5%, in Triton X-100 or paraffin oil, on each of four pieces of filter paper per dish. The test-solution dishes will be set at the same positions as the one or two dishes favored in the preceding Pattern Identification trial. To eliminate interference from the solvent, the other dishes without the test substance will contain the same volume of the appropriate solvent on filter papers as the test solution dishes. The bees will be allowed to feed for 10-15 minutes. Bee movements will be recorded by a small, wide-angle digital video camcorder (HD Hero 960; GoPro, Halfmoon Bay, Calif.) placed on a tripod in front of the test chamber. […]

[3] = test system: Apis mellifera Carniolan foraging worker honeybees; test: Proboscis extension response (PER) assay with bees conditioned to 2-heptanone; type: in vivo; settings: 0.5% compound in Triton X-100/water on filter paper, 4 s exposure; only bees giving PER with 2-heptanone and not with water or 15% Triton X-100 controls counted
Experimental: To determine whether a living honeybee can recognize a candidate compound, these compounds were tested using a proboscis extension response (PER) assay using classical conditioning approaches. Proboscis extension response conditioning is a case of appetitive learning, in which bees learn to associate odor stimuli with sucrose reward in the laboratory. In this case, bees were conditioned to produce a PER to 2-heptanone as the conditioned stimulus and a sugar reward as the unconditioned stimulus. These trained bees were then exposed to an odor pulse of a candidate compound to test whether a candidate compound would also produce a PER. If the candidate compound “mimics” 2-heptanone then the honeybee will extend its proboscis.
For conditioning procedures, Apis mellifera Carniolan foraging worker honeybees were obtained from a local apiary (typically 60 bees per shipment). The honeybees were held overnight in insect cages with food and water freely available, in an environmentally controlled room on a light cycle similar to the ambient cycle at the time of the assay.
For conditioning procedures, all tests were done in an odorant delivery apparatus set inside a fume hood. The apparatus comprised a set of open-ended, horizontal, 3 cm diameter by 10 cm long plastic tubes. Each tube was designed where a honeybee could be positioned at the distal end of a tube, with the opening at the other end of the tube located proximal to an inlet of the fume hood. To deliver an odorant, room air was pumped by a diaphragm pump through a particle filter via 0.25 inch plastic tubing at approximately 0.7 m/sec. The air flow passes into the headspace above an odorant (0.5% [v/v] 2-heptanone dissolved in odorless light paraffin oil) contained in a 100 mL bottle. The headspace air then passes through another plastic tube to a manifold of 4-way valves, each of which was attached near the proximal end of a plastic tube containing a bee. Each bee was exposed separately for a desired time period to the odorant by opening and closing the appropriate valve. When each valve was closed, the odor was flushed away immediately by the continuous fume hood air stream.
To train a honeybee to respond to a conditioned and unconditioned stimuli, bees were placed, without anesthesia, in individual 1.5 mL micro-centrifuge holding tubes and held overnight without access to food or water. The holding tubes containing the starved bees were placed in racks in groups of eight. One rack at a time was placed behind the odorant delivery apparatus so that each bee's head is centered at the distal end of a horizontal plastic tube. Each bee was exposed to the 2-heptanone odorant alone for four seconds, and then while being fed an 80% sucrose solution for and additional three seconds. The sucrose solution was delivered on a piece of saturated filter paper held in forceps. […] Positive and negative responses were recorded. A positive PER was scored when a bee extended its proboscis before the sucrose appeared. In a typical trial, 48 individual bees were subjected to conditioning.
After conditioning, honeybees were tested with the candidate compounds the same day or on the following day or, most commonly, both. When held overnight, bees were fed with sucrose and kept in their holding tubes. When tested the day after training, bees were given one or more rounds of conditioning with 2-heptatone to refresh their memories. Candidate compounds stocks were made at 5% (w/v) in polyoxyethylene octyl phenyl ether (TRITON® X-100), a non-ionic detergent/surfactant, and stored at 4° C. […] Test solutions were made fresh daily by mixing stock solutions with water for a final compound concentration of 0.5%. A solution of 0.5% 2-heptanone in paraffin oil was used as a positive control.

[4] = test system: OBP2; test: Fluorescent-quench ligand-protein-binding assay (OBP2 binding); parameters: species or system Apis mellifera
Excerpt: To identify a honeybee repellent disclosed herein, candidate compounds were screened based upon the fact that 2-heptanone is an established repellent of bees. 2-heptanone is thought to mediate its behavioral response through binding to a specific odorant-binding protein called OBP2. […] Such assays are generally known in the art. See, e.g., Briand, et al., Ligand-Binding Properties and Structural Characterization of a Novel Rat Odorant-Binding Protein Variant, Eur. J. Biochem. 267(10): 3079-3089 (2000); Briand, et al., Ligand Binding and Physico-Chemical Properties of ASP2, A Recombinant Odorant-Binding Protein From Honeybee (Apis mellifera L.), Eur. J. Biochem. 268(3): 752-760 (2001); Briand, et al., Characterization of a Chemosensory Protein (ASP3c) from Honeybee (Apis mellifera L.) as a Brood Pheromone Carrier, Eur. J. Biochem. 269(18): 4586-4596 (2002), each of which is hereby incorporated by reference in its entirety.

CCCCCC(C)=O [2-heptone, 2-Heptanone, reference compound]
Solubility in water [1]: very slightly soluble
Z-score ([2]; Z-test vs control likelihood 47.5%, alpha=10%, critical Z-score 1.282, positive = attractant, negative = repellant): −2.256
P (probability that a honeybee will return to a test dish, nP divided by n) [2]: 0.425
nP (number of tests a honeybee returned to a preferred test dish) [2]: 217

O=C1NC(=S)SC1=Cc1ccc(N2CCOCC2)c([N+](=O)[O-])c1 [compound 86, 5-[4-(4-morpholinyl)-3-nitrobenzylidene]-2-thioxo-1,3-thiazolidin-4-one]
P (probability that a honeybee will return to a test dish, nP divided by n) [2]: 0.25
nP (number of tests a honeybee returned to a preferred test dish) [2]: 8
2-heptanone positive bees testing positive to compound [3]: 38.1%
OBP2 binding characteristic of compound [4]: Moderate (Moderate, indicates that 50% or less of the compound bound to OBP2.)

CCc1ccc(O)c(N=Cc2cc(I)cc(I)c2O)c1 [compound 89, 2-{[(5-ethyl-2-hydroxyphenyl)imino]methyl}-4,6-diiodophenol]
P (probability that a honeybee will return to a test dish, nP divided by n) [2]: 0.278
nP (number of tests a honeybee returned to a preferred test dish) [2]: 5
2-heptanone positive bees testing positive to compound [3]: 33.3%
OBP2 binding characteristic of compound [4]: Moderate (Moderate, indicates that 50% or less of the compound bound to OBP2.)

— patent US9796676B2, “Honeybee repellents and uses thereof” (Inscent, Inc., priority 2013, dated 2017)
